The nature of assay [1]: Antioxidant activity assessed as hydroxyl radical scavenging activity. The assay is classed as functional.
Assay [2] in a line: Antioxidant activity assessed as superoxide radical scavenging activity at 0.40 mg/mL. It counts as functional.

As to `O=C1O[C@H]([C@@H](O)CO)C(O)=C1O` [ASCORBIC ACID], the IC50 in assay [1] was over 711 µg/mL. Besides, the Activity in assay [2] was 33.9%.

In general, IC50 refers to the point on the concentration scale where inhibition reaches its midpoint.

The values are drawn from ChEMBL document CHEMBL1158174, “The antioxidant activity of 2-(4(or 2)-hydroxyl-5-chloride-1,3-benzene-di-sulfanimide)-chitosan” (Eur J Med Chem, 2008).
